This is an account of results in patent publication US9376429B2, “Sodium channel blockers, preparation method thereof and use thereof” (Daewoong Pharmaceutical Co., Ltd., priority 2012, dated 2016).

The structures appear in SMILES notation.

T1 sequence (Q15858 whole entry): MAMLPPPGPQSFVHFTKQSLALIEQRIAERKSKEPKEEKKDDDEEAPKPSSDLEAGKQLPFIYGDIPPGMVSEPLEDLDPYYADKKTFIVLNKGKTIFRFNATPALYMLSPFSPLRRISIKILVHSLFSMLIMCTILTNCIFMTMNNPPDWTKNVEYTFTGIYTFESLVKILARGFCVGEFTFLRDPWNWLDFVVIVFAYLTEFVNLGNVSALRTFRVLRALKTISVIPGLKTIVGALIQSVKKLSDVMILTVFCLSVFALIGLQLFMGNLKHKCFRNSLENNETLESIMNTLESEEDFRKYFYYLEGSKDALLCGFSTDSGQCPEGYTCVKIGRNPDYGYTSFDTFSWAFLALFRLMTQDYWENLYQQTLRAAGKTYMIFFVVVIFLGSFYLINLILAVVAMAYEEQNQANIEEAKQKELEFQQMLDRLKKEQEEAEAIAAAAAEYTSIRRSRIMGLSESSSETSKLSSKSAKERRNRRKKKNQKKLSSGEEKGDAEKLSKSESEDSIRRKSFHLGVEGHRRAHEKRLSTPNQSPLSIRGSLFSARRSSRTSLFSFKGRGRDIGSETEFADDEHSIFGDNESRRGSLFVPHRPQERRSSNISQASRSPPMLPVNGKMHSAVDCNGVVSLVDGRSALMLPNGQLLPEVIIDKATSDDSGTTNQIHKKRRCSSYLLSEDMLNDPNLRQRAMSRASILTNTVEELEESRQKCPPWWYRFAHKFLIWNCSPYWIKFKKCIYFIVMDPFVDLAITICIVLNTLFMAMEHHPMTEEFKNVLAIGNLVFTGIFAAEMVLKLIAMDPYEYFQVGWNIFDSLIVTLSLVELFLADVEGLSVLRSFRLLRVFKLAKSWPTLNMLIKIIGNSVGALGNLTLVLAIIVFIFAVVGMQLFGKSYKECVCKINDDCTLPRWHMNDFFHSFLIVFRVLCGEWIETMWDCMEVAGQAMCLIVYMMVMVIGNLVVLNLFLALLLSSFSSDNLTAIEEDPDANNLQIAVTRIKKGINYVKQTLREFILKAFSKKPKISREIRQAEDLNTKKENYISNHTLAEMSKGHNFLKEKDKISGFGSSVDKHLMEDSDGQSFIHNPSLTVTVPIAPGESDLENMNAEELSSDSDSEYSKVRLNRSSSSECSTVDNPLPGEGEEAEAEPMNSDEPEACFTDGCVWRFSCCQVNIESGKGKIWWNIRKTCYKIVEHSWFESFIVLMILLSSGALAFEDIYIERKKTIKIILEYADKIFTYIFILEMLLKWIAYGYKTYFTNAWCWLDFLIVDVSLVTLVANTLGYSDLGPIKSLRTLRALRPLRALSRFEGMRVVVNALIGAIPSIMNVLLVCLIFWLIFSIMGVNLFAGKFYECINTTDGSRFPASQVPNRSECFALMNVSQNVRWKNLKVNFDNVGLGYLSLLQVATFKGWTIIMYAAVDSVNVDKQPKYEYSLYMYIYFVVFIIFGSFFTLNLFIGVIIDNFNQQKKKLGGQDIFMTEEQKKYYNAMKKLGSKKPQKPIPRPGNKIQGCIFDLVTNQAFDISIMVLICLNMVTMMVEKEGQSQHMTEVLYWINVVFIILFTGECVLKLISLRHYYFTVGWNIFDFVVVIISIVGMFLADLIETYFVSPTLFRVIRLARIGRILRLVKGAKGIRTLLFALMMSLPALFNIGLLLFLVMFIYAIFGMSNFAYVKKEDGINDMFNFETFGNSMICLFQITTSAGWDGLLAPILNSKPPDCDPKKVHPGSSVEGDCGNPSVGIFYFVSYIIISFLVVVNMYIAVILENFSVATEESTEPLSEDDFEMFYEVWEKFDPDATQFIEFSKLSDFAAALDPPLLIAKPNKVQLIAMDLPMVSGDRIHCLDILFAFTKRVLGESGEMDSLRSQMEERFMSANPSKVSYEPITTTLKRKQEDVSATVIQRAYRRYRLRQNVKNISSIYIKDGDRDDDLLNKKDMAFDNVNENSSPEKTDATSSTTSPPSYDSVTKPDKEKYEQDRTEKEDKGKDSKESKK

One assay has as its target T1, sodium ion channel (Nav1.7) (Homo sapiens, UniProt Q15858).
T1 construct: host or cells: HEK293
The assay can be described thus: Blocking effect against sodium ion channel (Nav1.7), IonFlux16 auto patch clamp, hNav1.7 HEK293 cells. Format: cell-based. To be noted: peak current after 50 seconds treatment, eight concentrations. Summed up: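 HEK293 cells stably expressing human Nav1.7 were recorded by IonFlux16 automated patch clamp in extracellular solution (pH 7.45, final DMSO ≤0.3%). Peak current was measured after 50 s exposure to each of eight compound concentrations and expressed as percent inhibition relative to pre-compound current.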
On the technique in general: In patch-clamp work, channel activity is measured electrically.
A word on the IC50: it is the concentration needed to halve the response being measured. A low value points to inhibition by little substance. As for `O=S(=O)(Nc1cscn1)c1cc(Cl)c(Oc2cnc(-c3cccc(F)c3)cc2-c2cccnc2)cc1F` [Example 74, 5-chloro-2-fluoro-4-((6′-(3-fluorophenyl)-[3,4′-bipyridin]-3′-yl)oxy)-N-(thiazol-4-yl)benzenesulfonamide], the IC50 is greater than 0.1 µM.

As for `Cn1cc(-c2cc(-c3cnn(C)c3)c(Oc3ccc(S(=O)(=O)Nc4nccs4)cc3C#N)cn2)cn1` [Example 54, 4-((4,6-bis(1-methyl-1H-pyrazol-4-yl)pyridin-3-yl)oxy)-3-cyano-N-(thiazol-2-yl)benzenesulfonamide], the IC50 is greater than 0.1 µM.

As for `N#Cc1cc(S(=O)(=O)Nc2nccs2)ccc1Oc1cnc(-c2ccnc(F)c2)cc1-c1ccoc1` [Example 9, 3-cyano-4-(2′-fluoro-4-(furan-3-yl)-2,4′-bipyridin-5-yloxy)-N-(thiazol-2-yl)benzenesulfonamide], the IC50 fell in the range of 0.051 to 0.1 µM.

The compound `N#Cc1cc(S(=O)(=O)Nc2cscn2)ccc1Oc1cnc(-c2ccc(F)c(F)c2)cc1-c1cncnc1` [Example 93, 3-cyano-4-((6-(3,4-difluorophenyl)-4-(pyrimidin-5-yl)pyridin-3-yl)oxy)-N-(thiazol-4-yl)benzenesulfonamide] showed an IC50 greater than 0.1 µM.

With `Cn1cc(-c2cc(-c3cnn(C)c3)c(Oc3ccc(S(=O)(=O)Nc4ncns4)cc3C#N)cn2)cn1` [Example 55, 4-((4,6-bis(1-methyl-1H-pyrazol-4-yl)pyridin-3-yl)oxy)-3-cyano-N-(1,2,4-thiadiazol-5-yl)benzenesulfonamide], the IC50 is greater than 0.1 µM.

Compound `N#Cc1cc(S(=O)(=O)Nc2nccs2)ccc1Oc1cnc(-c2ccccc2)cc1-c1ccc(F)nc1` [Example 30, 3-cyano-4-((6-fluoro-6′-phenyl-[3,4′-bipyridin]-3′-yl)oxy)-N-(thiazol-2-yl)benzenesulfonamide] displayed an IC50 greater than 0.1 µM.

On to `O=S(=O)(Nc1cscn1)c1cc(Cl)c(Oc2cnc(-c3cc(Cl)ccc3F)cc2-c2cccnc2)cc1F` [Example 81, 5-chloro-4-((6′-(5-chloro-2-fluorophenyl)-[3,4′-bipyridin]-3′-yl)oxy)-2-fluoro-N-(thiazol-4-yl)benzenesulfonamide], for which the IC50 was greater than 0.1 µM.

In turn, `Cn1nccc1-c1nc(-c2ccc(F)nc2)ccc1Oc1cc(F)c(S(=O)(=O)Nc2cscn2)cc1Cl` [Example 137, 5-chloro-2-fluoro-4-((6′-fluoro-6-(1-methyl-1H-pyrazol-5-yl)-[2,3′-bipyridin]-5-yl)oxy)-N-(thiazol-4-yl)benzenesulfonamide] gave an IC50 greater than 0.1 µM.

For `N#Cc1cc(S(=O)(=O)Nc2nccs2)ccc1Oc1ccc(-c2cccnc2)nc1-c1ccoc1` [Example 105, 3-cyano-4-((6-(furan-3-yl)-[2,3′-bipyridin]-5-yl)oxy)-N-(thiazol-2-yl)benzenesulfonamide], the IC50 was greater than 0.1 µM.

Compound `Cn1nccc1-c1cc(-c2ccccc2)ncc1Oc1ccc(S(=O)(=O)Nc2ncns2)cc1C#N` [Example 4, 3-cyano-4-((4-(1-methyl-1H-pyrazol-5-yl)-6-phenylpyridin-3-yl)oxy)-N-(1,2,4-thiadiazol-5-yl)benzenesulfonamide] registered an IC50 of 0.051 to 0.1 µM.

The compound `N#Cc1cc(S(=O)(=O)Nc2nccs2)ccc1Oc1cnc(-c2ccoc2)cc1-c1ccoc1` [Example 16, 3-cyano-4-((4,6-di(furan-3-yl)pyridin-3-yl)oxy)-N-(thiazol-2-yl)benzenesulfonamide] yielded an IC50 of less than 0.05 µM.

For `O=S(=O)(Nc1cscn1)c1cc(Cl)c(Oc2cnc(-c3ccnc(F)c3)cc2-c2cncnc2)cc1F` [Example 77, 5-chloro-2-fluoro-4-((2′-fluoro-4-(pyrimidin-5-yl)-[2,4′-bipyridin]-5-yl)oxy)-N-(thiazol-4-yl)benzenesulfonamide], the IC50 was greater than 0.1 µM.

`O=S(=O)(Nc1cscn1)c1cc(Cl)c(Oc2ccc(-c3ccccc3F)nc2-c2ccoc2)cc1F` [Example 133, 5-chloro-2-fluoro-4-((6-(2-fluorophenyl)-2-(furan-3-yl)pyridin-3-yl)oxy)-N-(thiazol-4-yl)benzenesulfonamide]: the IC50 was greater than 0.1 µM.

Test system in another assay: not given
Assay: not given
To be noted: neuropathic pain patients; cited from earlier work.
As for `NCC1(CC(=O)O)CCCCC1` [gabapentin], the “effective for share of the patients” value is given as 60%.
